Reference: PubChem BioAssay AID1259407 (Chemical Carcinogenesis Research Information System (CCRIS), 2018)
Active and inactive are the calls of the source. How the calls were made is not given here.

Test system: CCRIS mutagenicity, Ames/micronucleus/aberration tests
Test: CCRIS mutagenicity studies
[1] = Test System: AMES SALMONELLA TYPHIMURIUM, Strain/Indicator: TA98, Metabolic Activation: NONE, Method: STANDARD PLATE
[2] = Test System: AMES SALMONELLA TYPHIMURIUM, Strain/Indicator: TA100, Metabolic Activation: NONE, Method: STANDARD PLATE
[3] = Test System: AMES SALMONELLA TYPHIMURIUM, Strain/Indicator: TA102, Metabolic Activation: NONE, Method: STANDARD PLATE
[4] = Test System: AMES SALMONELLA TYPHIMURIUM, Strain/Indicator: TA1535, Metabolic Activation: NONE, Method: STANDARD PLATE
[5] = Test System: AMES SALMONELLA TYPHIMURIUM, Strain/Indicator: TA1537, Metabolic Activation: NONE, Method: STANDARD PLATE
[6] = Test System: AMES SALMONELLA TYPHIMURIUM, Strain/Indicator: TA100, Metabolic Activation: NONE, Method: PREINCUBATION
[7] = Test System: AMES SALMONELLA TYPHIMURIUM, Strain/Indicator: TA98, Metabolic Activation: RAT, LIVER, S-9, AROCLOR 1254, Method: STANDARD PLATE
[8] = Test System: AMES SALMONELLA TYPHIMURIUM, Strain/Indicator: TA100, Metabolic Activation: RAT, LIVER, S-9, AROCLOR 1254, Method: STANDARD PLATE

CCN(CCCl)c1ccc(OCCCCCNc2c3ccccc3nc3ccccc23)cc1
mutagenic call (Test System: AMES SALMONELLA TYPHIMURIUM, Strain/Indicator: DG1588, Metabolic Activation: NONE, Method: STANDARD PLATE): inactive; negative | mutagenic call (Test System: AMES SALMONELLA TYPHIMURIUM, Strain/Indicator: DG1592, Metabolic Activation: NONE, Method: STANDARD PLATE): inactive; negative | mutagenic call (Test System: AMES SALMONELLA TYPHIMURIUM, Strain/Indicator: DG1593, Metabolic Activation: NONE, Method: STANDARD PLATE): active; positive | mutagenic call [1]: active; positive | mutagenic call [2]: active; positive | mutagenic call [3]: inactive; negative | mutagenic call (Test System: AMES SALMONELLA TYPHIMURIUM, Strain/Indicator: TA104, Metabolic Activation: NONE, Method: STANDARD PLATE): inactive; negative | mutagenic call [4]: inactive; negative | mutagenic call (Test System: AMES SALMONELLA TYPHIMURIUM, Strain/Indicator: TA1537 (PKM101), Metabolic Activation: NONE, Method: STANDARD PLATE): active; positive | mutagenic call [5]: active; positive | mutagenic call (Test System: AMES SALMONELLA TYPHIMURIUM, Strain/Indicator: TA1538, Metabolic Activation: NONE, Method: STANDARD PLATE): inactive; negative | mutagenic call (Test System: AMES SALMONELLA TYPHIMURIUM, Strain/Indicator: TA1975 (PKM101), Metabolic Activation: NONE, Method: STANDARD PLATE): inactive; negative | mutagenic call (Test System: AMES SALMONELLA TYPHIMURIUM, Strain/Indicator: TA1975, Metabolic Activation: NONE, Method: STANDARD PLATE): inactive; negative | mutagenic call (Test System: AMES SALMONELLA TYPHIMURIUM, Strain/Indicator: TA1977, Metabolic Activation: NONE, Method: STANDARD PLATE): active; positive | mutagenic call (Test System: AMES SALMONELLA TYPHIMURIUM, Strain/Indicator: TA1978 (PKM101), Metabolic Activation: NONE, Method: STANDARD PLATE): active; positive | mutagenic call (Test System: AMES SALMONELLA TYPHIMURIUM, Strain/Indicator: TA1978, Metabolic Activation: NONE, Method: STANDARD PLATE): inactive; negative | mutagenic call (Test System: AMES SALMONELLA TYPHIMURIUM, Strain/Indicator: TA4001, Metabolic Activation: NONE, Method: STANDARD PLATE): active; positive | mutagenic call (Test System: AMES SALMONELLA TYPHIMURIUM, Strain/Indicator: TA4006, Metabolic Activation: NONE, Method: STANDARD PLATE): inactive; negative

CC(=O)OC(C)CN(CC(C)OC(C)=O)N=O (configuration not stated)
mutagenic call (Test System: AMES SALMONELLA TYPHIMURIUM, Strain/Indicator: TA100, Metabolic Activation: HAMSTER, LIVER, S-9, 3-METHYLCHOLANTHRENE, Method: PREINCUBATION): active; positive | mutagenic call (Test System: AMES SALMONELLA TYPHIMURIUM, Strain/Indicator: TA100, Metabolic Activation: HAMSTER, LIVER, S-9, PHENOBARBITAL, Method: PREINCUBATION): active; positive | mutagenic call (Test System: AMES SALMONELLA TYPHIMURIUM, Strain/Indicator: TA100, Metabolic Activation: HAMSTER, LIVER, S-9, Method: PREINCUBATION): active; positive | mutagenic call (Test System: AMES SALMONELLA TYPHIMURIUM, Strain/Indicator: TA100, Metabolic Activation: HUMAN, LIVER, S-9, Method: PREINCUBATION): inactive; negative | mutagenic call (Test System: AMES SALMONELLA TYPHIMURIUM, Strain/Indicator: TA100, Metabolic Activation: MONKEY, LIVER, S-9, Method: PREINCUBATION): active; positive | mutagenic call (Test System: AMES SALMONELLA TYPHIMURIUM, Strain/Indicator: TA100, Metabolic Activation: MOUSE, LIVER, S-9, 3-METHYLCHOLANTHRENE, Method: PREINCUBATION): active; positive | mutagenic call (Test System: AMES SALMONELLA TYPHIMURIUM, Strain/Indicator: TA100, Metabolic Activation: MOUSE, LIVER, S-9, PHENOBARBITAL, Method: PREINCUBATION): active; positive | mutagenic call (Test System: AMES SALMONELLA TYPHIMURIUM, Strain/Indicator: TA100, Metabolic Activation: MOUSE, LIVER, S-9, Method: PREINCUBATION): active; positive | mutagenic call [6]: inactive; negative | mutagenic call (Test System: AMES SALMONELLA TYPHIMURIUM, Strain/Indicator: TA100, Metabolic Activation: RABBIT, LIVER, S-9, Method: PREINCUBATION): active; positive | mutagenic call (Test System: AMES SALMONELLA TYPHIMURIUM, Strain/Indicator: TA100, Metabolic Activation: RAT, LIVER, CYTOSOL, PCB, Method: PREINCUBATION): inactive; negative | mutagenic call (Test System: AMES SALMONELLA TYPHIMURIUM, Strain/Indicator: TA100, Metabolic Activation: RAT, LIVER, MICROSOMES AND CYTOSOL, PCB, Method: PREINCUBATION): active; positive | mutagenic call (Test System: AMES SALMONELLA TYPHIMURIUM, Strain/Indicator: TA100, Metabolic Activation: RAT, LIVER, MICROSOMES AND G6PDH, PCB, Method: PREINCUBATION): active; positive | mutagenic call (Test System: AMES SALMONELLA TYPHIMURIUM, Strain/Indicator: TA100, Metabolic Activation: RAT, LIVER, MICROSOMES, PCB, Method: PREINCUBATION): active; positive | mutagenic call (Test System: AMES SALMONELLA TYPHIMURIUM, Strain/Indicator: TA100, Metabolic Activation: RAT, LIVER, S-9 (HEATED), PCB, Method: PREINCUBATION): inactive; negative | mutagenic call (Test System: AMES SALMONELLA TYPHIMURIUM, Strain/Indicator: TA100, Metabolic Activation: RAT, LIVER, S-9, 3-METHYLCHOLANTHRENE, Method: PREINCUBATION): active; positive | mutagenic call (Test System: AMES SALMONELLA TYPHIMURIUM, Strain/Indicator: TA100, Metabolic Activation: RAT, LIVER, S-9, PCB, Method: PREINCUBATION): active; positive | mutagenic call (Test System: AMES SALMONELLA TYPHIMURIUM, Strain/Indicator: TA100, Metabolic Activation: RAT, LIVER, S-9, PHENOBARBITAL, Method: PREINCUBATION): active; positive | mutagenic call (Test System: AMES SALMONELLA TYPHIMURIUM, Strain/Indicator: TA100, Metabolic Activation: RAT, LIVER, S-9, Method: PREINCUBATION): active; positive | mutagenic call (Test System: AMES SALMONELLA TYPHIMURIUM, Strain/Indicator: TA100, Metabolic Activation: RAT, LIVER, S-9 WITHOUT NADP+, PCB, Method: PREINCUBATION): inactive; negative | mutagenic call (Test System: AMES SALMONELLA TYPHIMURIUM, Strain/Indicator: TA100, Method: PREINCUBATION): active; positive | mutagenic call (Test System: CHINESE HAMSTER V-79, Strain/Indicator: V-79/OUABAIN, Metabolic Activation: HAMSTER, HEPATOCYTES, Method: CELL-MEDIATED): active; positive

CC(Oc1ccc(Cl)cc1Cl)C(=O)O (configuration not stated)
mutagenic call (Test System: AMES SALMONELLA TYPHIMURIUM, Strain/Indicator: TA97, Metabolic Activation: NONE, Method: STANDARD PLATE): inactive; negative | mutagenic call (Test System: AMES SALMONELLA TYPHIMURIUM, Strain/Indicator: TA97, Metabolic Activation: RAT, LIVER, S-9, AROCLOR 1254, Method: STANDARD PLATE): inactive; negative | mutagenic call [1]: inactive; negative | mutagenic call [7]: inactive; negative | mutagenic call [2]: inactive; negative | mutagenic call [8]: inactive; negative | mutagenic call [3]: inactive; negative | mutagenic call (Test System: AMES SALMONELLA TYPHIMURIUM, Strain/Indicator: TA102, Metabolic Activation: RAT, LIVER, S-9, AROCLOR 1254, Method: STANDARD PLATE): inactive; negative

O=C(Nc1ccc(Br)cc1)c1csc([N+](=O)[O-])c1
mutagenic call [1]: active; positive | mutagenic call [2]: active; positive

N#C[S-].N#C[S-].N#C[S-].N#C[S-].N#C[S-].N#C[S-].[K+].[K+].[Pt+4]
mutagenic call (Test System: AMES SALMONELLA TYPHIMURIUM, Strain/Indicator: TA98, Metabolic Activation: NONE, Method: PREINCUBATION): inactive; negative | mutagenic call (Test System: AMES SALMONELLA TYPHIMURIUM, Strain/Indicator: TA98, Metabolic Activation: RAT, LIVER, S-9, AROCLOR 1254, Method: PREINCUBATION): inactive; negative | mutagenic call [6]: inactive; negative | mutagenic call (Test System: AMES SALMONELLA TYPHIMURIUM, Strain/Indicator: TA100, Metabolic Activation: RAT, LIVER, S-9, AROCLOR 1254, Method: PREINCUBATION): inactive; negative

O=[N+]([O-])O[C@@H]1CO[C@H]2[C@@H]1OC[C@@H]2O
mutagenic call [1]: inactive; negative | mutagenic call [7]: inactive; negative | mutagenic call [2]: inactive; negative | mutagenic call [8]: inactive; negative | mutagenic call [4]: inactive; negative | mutagenic call (Test System: AMES SALMONELLA TYPHIMURIUM, Strain/Indicator: TA1535, Metabolic Activation: RAT, LIVER, S-9, AROCLOR 1254, Method: STANDARD PLATE): inactive; negative | mutagenic call [5]: inactive; negative | mutagenic call (Test System: AMES SALMONELLA TYPHIMURIUM, Strain/Indicator: TA1537, Metabolic Activation: RAT, LIVER, S-9, AROCLOR 1254, Method: STANDARD PLATE): inactive; negative
